Reference: patent US7977320B2, “Method of increasing efficacy of tumor cell killing using combinations of anti-neoplastic agents” (The Regents of the University of California, priority 2004, dated 2011)

How the values were obtained:
Assay type in all cases: cell-based
primary AML cells [1] = assay: proliferation assay of primary AML samples after 5-azacytidine treatment; settings: for inhibition of proliferation: Syk+ cells, FIG. 7A
Procedure: (§1) To evaluate the effect of certain chemotherapeutic agents on signal transduction through Syk and/or SHP-1, experiments were performed on primary AML samples. Primary leukemia cells were treated with 5-azacytidine for 4 days under otherwise normal cell culture growth conditions. The cells were then washed twice, and a proliferation assay was performed as described above. The basal level of proliferation (untreated cells) was considered as 100% and the percent change was calculated for each condition. Error bars indicate the SEM.

Syk = Syk expression in primary AML samples after 5-azacytidine treatment
Procedure: Based on these observations, we tested a panel of 25 primary AML samples for Syk expression using standard Western blotting and an anti-Syk or anti-ZAP-70 mouse monoclonal antibody from Santa Cruz Biochem.
as §1
Syk is not only an important protein kinase, but also a tumor suppressor. In many cancer cells, Syk is silenced by hypemethylation of the DNA encoding it. This hypermethylation can lead to absence of Syk expression and, as a result, to unresponsiveness of tumor cells to various treatments. To block possible hyper-methylation and restore Syk expression in Syk-negative primary AML samples, we used 5-azacytidine. Other hypomethylating agents could work as well. The results of the experiments are depicted in FIG. 7, Panels A-D.

SHP-1 = SHP-1 expression in primary AML samples after 5-azacytidine treatment; settings: 2 of 5 SHP-1-negative primary AML samples
primary AML cells [2] = assay: proliferative response of primary AML samples to GO; settings: for responsive samples: FIG. 3A
Procedure: More specifically, for Panel A, colony formation assays were performed as follows: HL-60 cells were treated and cultured in 0.3% agarose in triplicate for each condition in the presence of 0.01 ug/ml of antibodies. After 14 days of culture, the number of colonies was enumerated in each dish. The basal level of colony formation (>400 per dish) was considered as 100% and the percentage of stimulation was calculated for each condition. Error bars in the figure indicate the SEM. Each graph is representative of at least 3 independent experiments. For Panel B, primary leukemia cells were cultured for 48 hours in the presence of 0.01 ug/ml of anti-CD33 mAb or control mouse IgG. Each bar in the figure summarizes (median) the proliferative response of that group. The basal level of untreated cell proliferation (CPM>5500 CPM) was considered as 0%. Inhibition was calculated as the percent change for that condition. Error bars indicate the SEM.
With the knowledge of the effect of a naked anti-CD33 antibody on Syk activation and cell proliferation or death, we investigated the effect of an immunotoxin (GO; Mylotarg® (Wyeth)) on these characteristics. GO was selected based on its approval status by the FDA. Proliferation assays were performed as described above. Various concentration of GO were added at the initiation of 48 hour culture. The basal levels of cell proliferation (untreated cells) were >10000 cpm and were considered as 100%. The percentage of change was calculated for each condition for each sample. Error bars indicate the SEM.

HL-60 cells = assay: proliferation assay of HL-60 cells transfected with Syk si-RNA or control RNA; settings: Syk si-RNA-transfected HL-60 cells versus control RNA treated or untreated cells, FIG. 4B
Procedure: To test whether there is a correlation between response of AML cells to CD33 ligation and/or GO treatment and the level of their Syk expression, “blocking” experiments were performed. In order to block Syk expression, we used Syk-si-RNA transfection. More specifically, for the results presented in FIGS. 4A and 4B, HL-60 cells were transfected with Syk si-RNA or control RNA and grown in cell culture under normal conditions for these cells. 72 hours post-transfection, cells were cultured in the presence of optimal ([…]) concentration of mAb, as disclosed above (FIG. 4A) or the indicated concentrations of Mylotarg® (Wyeth) (FIG. 4B). Proliferation assays were performed as described above. The basal level of proliferation was >10000 CPM (considered as 100%). Each point represents the percent change for that condition. Error bars indicate the SEM. Bars compared and marked with asterisk have a statistically significant difference. For FIG. 4C, HL-60 cells were transfected with Syk si-RNA or control RNA. After 72 hours of culture under typical culture conditions, cell lysates were prepared and used to generate immune precipitates with the appropriate mAb.

Row | Compound | level of inhibition of proliferation (primary AML cells [1]; 5-aza alone, Syk-positive or SHP-positive samples versus negative samples) | inhibition of proliferation (primary AML cells [1]; 5-azacytidine 4 days combined with GO) | inhibition of proliferation (primary AML cells [1]; 5-azacytidine 4 days combined with naked anti-CD33 antibody) | effect of anti-CD33 antibodies on proliferation (primary AML cells [1]; Syk- cells (non-responders) treated with the hypomethylating agent, FIG. 7B) | level of inhibition of proliferation (primary AML cells [1]; Syk-negative or SHP-1-negative samples, 5-aza combined with Mylotarg) | level of inhibition of proliferation (primary AML cells [1]; Syk-negative or SHP-1-negative samples, 5-aza combined with anti-CD33 mAb) | samples with restored Syk expression (Syk; 5 of 15 Syk-negative primary AML samples) [%] | level of Syk expression (Syk; Syk-positive samples (data not shown)) | samples with restored SHP-1 (SHP-1) [%] | responsive samples (primary AML cells [2]; Syk-negative primary AML samples) [%] | responsive samples (primary AML cells [2]; Syk-positive primary AML samples) [%] | level of inhibition of proliferation (primary AML cells [2]; Syk-positive samples versus Syk-negative samples, p<0.003) | proliferative response (primary AML cells [2]; both Syk-positive and Syk-negative samples, 48 hour culture, FIG. 3B) | response of proliferation to treatment (HL-60 cells)
1 | Nc1ncn([C@@H]2O[C@H](CO)[C@@H](O)[C@H]2O)c(=O)n1 [5-azacytidine, 5-Azacytidine] | significantly higher | increased inhibition of proliferation | increased inhibition of proliferation | substantially increased | comparable to positive samples | comparable to positive samples | 33 | un-changed | 40 |  |  |  |  | 
2 | gemtuzumab ozogamicin [GO] |  |  |  |  |  |  |  |  |  | 17 | 83 | higher than in Syk-negative samples | dose-dependent inhibition | significantly lower response
